Numbered stars: 1 amine (or outer) side, 2 acyl side, 3 side chain; on linkers, the order of the positions; unused ones are H or OH. Square brackets hold non-standard residues; d marks the D form. Peptide text beside a SMILES is read from it. X1 = CC(c1ccccc1)[C@H](N[*:1])C(=O)[*:2]; Pen = CC(C)(S)[C@H](N)C(=O)O; Nle = CCCC[C@H](N)C(=O)O; Abu = CC[C@H](N)C(=O)O; Sar = CNCC(=O)O
How the values were obtained:
[1] = test system: Rattus norvegicus; experiment: In vivo residual angiotensin II like activity in an rat blood pressure assay; type: functional; design: concentration or dose not given beside the values
[2] = test system: Rattus norvegicus; experiment: In vivo angiotensin II like activity expressed in rat blood pressure assay measured as increase in BP by 1 ug bolus intravenous injection of compound; type: functional
[3] = test system: Rattus norvegicus; experiment: In vivo antagonistic activity was measured in the rat blood pressure assay; type: functional
[4] = target: Type-1 angiotensin II receptor (Oryctolagus cuniculus) (UniProt P34976); experiment: In vitro antagonist activity of compound towards angiotensin II like was measured in rabbit aorta assay; conditions: target entry is the homologue from another species
[5] = test system: Rattus norvegicus; experiment: In vivo angiotensin II like activity determined in rat blood pressure assay measured as increase in BP by 1 ug iv of compound; type: functional
[6] = organism: Oryctolagus cuniculus; experiment: In vitro antagonist activity was measured in rabbit aorta assay as pA2
[7] = test system: Rattus norvegicus; experiment: In vivo residual angiotensin II like activity in rat blood pressure assay; type: functional
[8] = organism: Oryctolagus cuniculus; experiment: In vitro antagonist activity of compound towards angiotensin II like was measured in rabbit aorta assay; type: functional

Sequence of Type-1 angiotensin II receptor (Oryctolagus cuniculus) (P34976 whole entry, looked up): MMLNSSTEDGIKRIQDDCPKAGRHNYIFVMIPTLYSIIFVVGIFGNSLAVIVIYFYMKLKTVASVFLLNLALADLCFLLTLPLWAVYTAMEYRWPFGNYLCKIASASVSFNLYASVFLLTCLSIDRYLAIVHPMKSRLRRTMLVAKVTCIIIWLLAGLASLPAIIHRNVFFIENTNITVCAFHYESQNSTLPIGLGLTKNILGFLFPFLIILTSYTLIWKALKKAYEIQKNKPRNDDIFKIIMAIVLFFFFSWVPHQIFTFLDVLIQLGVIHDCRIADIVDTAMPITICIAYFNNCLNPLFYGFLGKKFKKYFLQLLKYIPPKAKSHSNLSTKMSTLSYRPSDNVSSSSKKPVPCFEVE

Row | Compound | BP [2] | ID50 [3] | BP [5] | pA2 [6] | also measured
1 | H-NRVYLHPF-OH |  |  |  |  | Activity [1]: 25%
2 | CCCC[C@H](NC(=O)[C@H](Cc1ccc(O)cc1)NC(=O)[C@@H](NC(=O)[C@H](CCCN=C(N)N)NC(=O)CNC)C(C)C)C(=O)N[C@@H](Cc1c[nH]cn1)C(=O)N1CCC[C@H]1C(=O)N[C@H](C(=O)O)[C@@H](C)CC (H-[Sar]RVY[Nle]HPI-OH) | 20 mmHg | 20 ng min-1 rat-1 |  |  | pA2 [4]: 8.85
3 | CC[C@H](C)[C@H](NC(=O)[C@@H]1CCCN1C(=O)[C@H](Cc1c[nH]cn1)NC(=O)[C@@H](NC(=O)[C@H](Cc1ccc(O)cc1)NC(=O)[C@@H](NC(=O)[C@H](CCCN=C(N)N)NC(=O)CNC)C(C)C)C(C)(C)SC)C(=O)O (H-[Sar]RVY[Pen](Me)HPI-OH) | 12.5 mmHg | 20 ng min-1 rat-1 |  |  | pA2 [4]: 9
4 | CC[C@H](C)[C@H](NC(=O)[C@@H]1CCCN1C(=O)[C@H](Cc1c[nH]cn1)NC(=O)[C@H](NC(=O)[C@H](Cc1ccc(O)cc1)NC(=O)[C@@H](NC(=O)[C@H](CCCN=C(N)N)NC(=O)CNC)C(C)C)c1ccccc1)C(=O)O |  | 5.5 ng min-1 rat-1 | 8.5 mmHg | 9 | 
5 | CC[C@H](C)[C@H](NC(=O)[C@@H]1CCCN1C(=O)[C@H](Cc1c[nH]cn1)NC(=O)[C@H](CCC(=O)O)NC(=O)[C@H](Cc1ccc(O)cc1)NC(=O)[C@@H](NC(=O)[C@H](CCCN=C(N)N)NC(=O)CNC)C(C)C)C(=O)O | 2 mmHg | 100 ng min-1 rat-1 |  |  | pA2 [4]: 9
6 | H-NRVYRHPF-OH |  |  |  |  | Activity [1]: 0%
7 | H-NRVYVHPF-OH [ANGIOTENSIN AMIDE] |  |  |  |  | Activity [7]: 100%
8 | CC[C@H](C)[C@H](NC(=O)[C@@H]1CCCN1C(=O)[C@H](Cc1c[nH]cn1)NC(=O)[C@H](CCCCN)NC(=O)[C@H](Cc1ccc(O)cc1)NC(=O)[C@@H](NC(=O)[C@H](CCCN=C(N)N)NC(=O)CNC)C(C)C)C(=O)O (H-[Sar]RVYKHPI-OH) | 10 mmHg | 50 ng min-1 rat-1 |  |  | pA2 [4]: 8.7
9 | CC[C@H](C)[C@H](NC(=O)[C@@H]1CCCN1C(=O)[C@H](Cc1c[nH]cn1)NC(=O)[C@H](Cc1c[nH]c2ccccc12)NC(=O)[C@H](Cc1ccc(O)cc1)NC(=O)[C@@H](NC(=O)[C@H](CCCN=C(N)N)NC(=O)CNC)C(C)C)C(=O)O |  | 50 ng min-1 rat-1 | 7.5 mmHg | 7.25 | 
10 | CC[C@H](C)[C@H](NC(=O)[C@@H]1CCCN1C(=O)[C@H](Cc1c[nH]cn1)NC(=O)[C@H](CCCN=C(N)N)NC(=O)[C@H](Cc1ccc(O)cc1)NC(=O)[C@@H](NC(=O)[C@H](CCCN=C(N)N)NC(=O)CNC)C(C)C)C(=O)O (H-[Sar]RVYRHPI-OH) |  | 15 ng min-1 rat-1 | 10 mmHg | 9 | 
11 | CC[C@H](C)[C@H](NC(=O)[C@@H]1CCCN1C(=O)[C@H](Cc1c[nH]cn1)NC(=O)[C@@H]1CCCN1C(=O)[C@H](Cc1ccc(O)cc1)NC(=O)[C@@H](NC(=O)[C@H](CCCN=C(N)N)NC(=O)CNC)C(C)C)C(=O)O (H-[Sar]RVYPHPI-OH) | 7 mmHg |  |  |  | pA2 [8]: 8.7
12 | H-NRVYAHPF-OH |  |  |  |  | Activity [1]: 3%
13 | CC[C@H](C)[C@H](NC(=O)[C@@H]1CCCN1C(=O)[C@H](Cc1c[nH]cn1)NC(=O)[C@H](Cc1ccccc1)NC(=O)[C@H](Cc1ccc(O)cc1)NC(=O)[C@@H](NC(=O)[C@H](CCCN=C(N)N)NC(=O)CNC)C(C)C)C(=O)O (H-[Sar]RVYFHPI-OH) |  | 100 ng min-1 rat-1 | 7.5 mmHg | 9.15 | 
14 | CC[C@H](C)[C@H](NC(=O)[C@@H]1CCCN1C(=O)[C@H](Cc1c[nH]cn1)NC(=O)[C@@H](NC(=O)[C@H](Cc1ccc(O)cc1)NC(=O)[C@@H](NC(=O)[C@H](CCCN=C(N)N)NC(=O)CNC)C(C)C)C(C)c1ccccc1)C(=O)O (some centres undefined) (H-[Sar]RVY[X1]HPI-OH) |  | 7.5 ng min-1 rat-1 | 10 mmHg | 9.3 | 
15 | CC[C@H](NC(=O)[C@H](Cc1ccc(O)cc1)NC(=O)[C@@H](NC(=O)[C@H](CCCN=C(N)N)NC(=O)[C@@H](N)CC(N)=O)C(C)C)C(=O)N[C@@H](Cc1c[nH]cn1)C(=O)N1CCC[C@H]1C(=O)N[C@@H](Cc1ccccc1)C(=O)O (H-NRVY[Abu]HPF-OH) |  |  |  |  | Activity [1]: 16%

From ChEMBL document CHEMBL1124402, “Potent angiotensin II antagonists with non-beta-branched amino acids in position 5” (1989)
